# Where a SMILES comes first, the peptide text is derived from it. [ ]: non-standard residue; d: D form. The star is where a group is joined. Bip(2'-Et,4'-O(CH2)4NH2) = CCc1cc(OCCCCN)ccc1-c1ccc(C[C@H](N)C(=O)O)cc1; Nva(5-(3,5-Me2Ph)) = Cc1cc(C)cc(CCC[C@H](N)C(=O)O)c1; Ala(1H-tetrazol-5-yl) = N[C@@H](Cc1nnn[nH]1)C(=O)O; αMePhe(2-F) = C[C@](N)(Cc1ccccc1F)C(=O)O; X3 = CC(C)(C(=O)*)c1ccn[nH]1; X1 = O=C(CCCCCc1cnc[nH]1)*
# Key:
# [1] = Plasma stability of payloads and linker-payloads, human plasma; type: in vitro ADME; settings: 2 μM, 37° C., read-out: Human plasma stability assay T½ (converted)
# Summary of the method: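 Pooled plasma, pH adjusted to 7.4±0.1 where needed, spiked to 2 μM compound (duplicate) and incubated at 37 °C. At each time point, protein was precipitated with ACN/MeOH stop solution containing internal standards; remaining compound quantified in supernatant by LC-MS/MS.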
# [2] = Plasma stability of payloads and linker-payloads, mouse plasma; type: in vitro ADME; settings: for half-life at 2 µM: mouse, pooled plasma
# Description: The plasma stability of payloads and linker payloads of the disclosure were measured. For the assay, pooled frozen plasma (human, mouse or monkey) was thawed in cold water or a 37° C. water bath prior to experiment. Plasma was centrifuged at 4000 rpm for 5 min if any clots were observed, they were subsequently removed. If required, the pH was adjusted to 7.4±0.1. For the preparation of compounds and positive controls, a 1 mM intermediate solution was prepared by diluting 10 μL of their stock solution with 90 μL DMSO; a 1 mM intermediate solution of the positive control (Propantheline) was prepared by diluting 10 μL of its stock solution with 90 μL ultrapure water. Subsequently, 100 μM dosing solution for each compound was prepared by diluting 20 μL of the intermediate solution (1 mM) with 180 μL 45% MeOH/H2O. 98 μL of plasma was spiked with 2 μL of dosing solution (100 μM) to achieve the final concentration of 2 μM in duplicate. Samples were then incubated at 37° C. in a water bath. […] At each time point, 400 μL of stop solution (200 ng/mL tolbutamide plus 200 ng/mL labetalol in 50% ACN/MeOH) was added to precipitate protein and mixed thoroughly. Sample plates were then centrifuged at 4,000 rpm for 10 min. An aliquot of supernatant (50 μL) was transferred from each well and mixed with 100 μL ultrapure water. The samples were then shaken at 800 rpm for approximately 10 min before submitting for LC-MS/MS analysis.
# [3] = biological target: T1, human GLP1R (Homo sapiens, UniProt P43220); test: Human GLP1R cAMP accumulation assay; type: cell-based; set-up: HEK293 cells over-expressing full length human GLP-1R were utilized; expressed in transfected cells; host or cells: HEK293 (HEK293/hGLP1R)
# T1 sequence (P43220 24-463): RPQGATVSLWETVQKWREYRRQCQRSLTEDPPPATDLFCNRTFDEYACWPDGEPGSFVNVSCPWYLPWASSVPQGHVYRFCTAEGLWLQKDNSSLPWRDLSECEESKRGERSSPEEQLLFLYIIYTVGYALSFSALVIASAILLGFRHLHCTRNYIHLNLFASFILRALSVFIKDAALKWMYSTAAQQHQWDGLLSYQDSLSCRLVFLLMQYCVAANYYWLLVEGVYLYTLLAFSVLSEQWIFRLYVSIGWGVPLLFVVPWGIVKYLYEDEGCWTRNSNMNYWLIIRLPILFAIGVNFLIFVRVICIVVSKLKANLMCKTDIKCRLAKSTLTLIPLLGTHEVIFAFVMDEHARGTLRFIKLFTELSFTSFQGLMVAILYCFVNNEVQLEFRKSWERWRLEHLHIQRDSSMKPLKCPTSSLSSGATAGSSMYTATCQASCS
# Summary of the method: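 cAMP accumulation measured after 30 min at 23° C, with 500 μM IBMX in HEPES-buffered HBSS plus 0.1% BSA, in HEK293 cells expressing full-length hGLP-1R. Levels read by D2-cAMP/antibody immunoassay via standard curve, scaled between low and high controls. EC50 fitted four-parameter over a 10-point curve.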
# [4] = test system: HEK293/CRE-Luc cells; test: Luciferase reporter assay, HEK293/CRE-Luc cells without hGLP1R (Example 11); type: cell-based, human; settings: Table 11; Experiment A; no hGLP1R expression
# Text: (§1) To test the activity of GLP1R agonist payloads, GLP1R agonist linker-payloads (LPs), and anti-GLP1R antibody tethered drug conjugates (ATDCs) of the disclosure, a cell-based cAMP responsive luciferase reporter assay was developed. To generate the assay cell line, the firefly luciferase gene was placed under the control of a cAMP response element (CRE) located upstream of a minimal promoter and transfected into HEK293 cells and referred to herein as HEK293/CRE-Luc cells.
# (§2) Three-fold serial dilutions of free payloads or LPs were prepared in 100% DMSO, transferred to fresh assay media, and added to the cells at a final constant DMSO concentration of 0.2%. The last well in the plate served as a blank control containing only the assay media and 0.2% DMSO (untreated well) and was plotted as a continuation of the 3-fold serial dilution. Four to six hours later, luciferase activity was determined after the addition of One-Glo™ reagent (Promega, Cat #E6130) to each well. Relative light units (RLUs) were measured on an Envision luminometer (PerkinElmer) and EC50 values were determined using a four-parameter logistic equation over a 12-point dose response curve (GraphPad Prism). The signal to noise (S/N) was determined by taking the ratio of the highest RLU on the dose response curve to the RLU in the untreated wells.
# [5] = test system: HEK293/CRE-Luc cells; test: Luciferase reporter assay, HEK293/CRE-Luc cells without GLP1R (Example 17); type: cell-based, human; settings: HEK293/CRE-Luc cells without hGLP1R, payloads and linker-payloads; for EC50: read-out: EC50
# Summary of the method: (§3)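 HEK293 cells carrying a CRE-driven firefly luciferase reporter were exposed to 3-fold serial dilutions of payloads or linker-payloads (12 points, 0.2% DMSO final) for 4–6 h, then luminescence was read. EC50 came from a four-parameter logistic fit; S/N is top RLU over untreated wells, and relative potency and S/N are referenced to M2361.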
# [6] = Plasma stability of payloads (t½)
# [7] = biological target: T1, human GLP1R; test: Luciferase reporter assay, HEK293/CRE-Luc/hGLP1R cells (Example 11); type: cell-based; set-up: engineered to express full-length human GLP1R, cynomolgus GLP1R; expressed in transfected cells; host or cells: HEK293/CRE-Luc; settings: Table 11; Experiment A
# Text: as §1, §2
# GLP1R agonist linker payloads were conjugated to anti-hGLP1R antibodies via N-terminal heavy or light chain Q tags. Several resulting anti-GLP1R antibody tethered drug conjugates (ATDCs) were tested for activity in the HEK293/CRE-Luc/hGLP1R reporter assay as described above for the free GLP1R payload and linker-payload agonists.
# [8] = biological target: T1, human GLP1R; test: Luciferase reporter assay, HEK293/CRE-Luc/hGLP1R (Example 17); type: cell-based; set-up: engineered to express full-length human GLP1R, cynomolgus GLP1R; expressed in transfected cells; host or cells: HEK293/CRE-Luc; settings: HEK293/CRE-Luc/hGLP1R; for S/N: highest RLU / RLU of untreated wells; for EC50: payloads and linker-payloads, experiments A-E, M2361 repeated in each, read-out: EC50; for Relative Potency (% M2361 EC50) / Relative Signal:Noise (% M2361): relative to M2361 of the same experiment
# Summary of the method: as §3
# [9] = Liver microsome stability; type: in vitro ADME, human; settings: human, microsomes, Table 7
# Description: To assess the in vitro ADME properties of the LP, microsomal stability assay was performed to determine intrinsic clearance, and plasma protein binding assay was performed to understand the distribution potential.
# [10] = Plasma protein binding (equilibrium dialysis); type: in vitro ADME, human; settings: Human Plasma; 4 hours dialysis
# Description: The pH value of the resulting plasma was checked
# (<http://www.htdialysis.com/>).
# DMSO working solutions were prepared at 400 μM. […] These samples were transferred into new 96-well plates.
# [11] = plasma, pH 7.4, tested time A (1 day per footnote)
# [12] = HEK293/hGLP1R cells, Table 4, read-out: cAMP EC50
Compound,"half-life at 2 µM [1, 11] [h]",EC50 [4] [nM],HEK293/CRE-LUC S/N [4],S/N [5],EC50 [5] [nM],Plasma stability t½ [6] [h],EC50 [7] [nM],HEK293/CRE-LUC/hGLP1R Relative Potency (% P8 EC50) [7] [%],HEK293/CRE-LUC/hGLP1R S/N [7],S/N [8],EC50 [8] [nM],Relative Potency (% M2361 EC50) [8] [%],Relative Signal:Noise (% M2361) [8] [%],"EC50 [3, 12] [nM]",other results
"CCc1cc(OC)ccc1-c1ccc(C[C@H](NC(=O)[C@H](CC(=O)O)NC(=O)[C@H](CO)NC(=O)[C@@H](NC(=O)[C@](C)(Cc2ccccc2F)NC(=O)[C@@H](NC(=O)CNC(=O)[C@H](Cc2nn[nH]n2)NC(=O)C(C)(C)C(=O)NCCc2cnc[nH]2)[C@@H](C)O)[C@@H](C)O)C(=O)N[C@@H](CCCc2ccc(OCCCCNC(=O)CCOCCOCCOCCOCCOCCOCCOCCOCCOCCOCCOCCOCCOCCOCCOCCOCCOCCOCCOCCOCCOCCOCCOCCOCCNC(=O)CCC(=O)N3Cc4ccccc4-c4c(nnn4CC4OC5OC6C(CO)OC(OC7C(CO)OC(OC8C(CO)OC(OC9C(CO)OC(OC%10C(CO)OC(OC4C(O)C5O)C(O)C%10O)C(O)C9O)C(O)C8O)C(O)C7O)C(O)C6O)-c4ccccc43)cc2)C(N)=O)cc1 (stereo partly shown) [LP23, cyclo-dex-trin-triazole-DIBAC-suc-PEG24-P24]",,,,,,,,,,,,,,,"half-life at 2 µM ([1]; pooled plasma, pH 7.4, tested time B (2 hrs per footnote)): > 4.8 h; plasma stability T½ ([2]; Mouse, assay time 2 hr, Table 5B): >4 h; half-life at 2 µM ([2]; pH 7.4, Mouse, assay time 2 hr, Table 5B, read-out: plasma stability T½): > 4 h; half-life at 2 µM ([2]; pH 7.4, Table 5A, mouse plasma, tested time B (2 hrs), read-out: plasma stability T½ (hr), mouse): > 4.8 h; EC50 [3]: 0.534 nM"
"CCc1cc(OCCCCN)ccc1-c1ccc(C[C@H](NC(=O)[C@H](CC(=O)O)NC(=O)[C@H](CO)NC(=O)[C@@H](NC(=O)[C@](C)(Cc2ccccc2F)NC(=O)[C@@H](NC(=O)CNC(=O)[C@H](Cc2nn[nH]n2)NC(=O)C(C)(C)c2ccn[nH]2)[C@@H](C)O)[C@@H](C)O)C(=O)N[C@@H](CCCc2cc(C)cc(C)c2)C(N)=O)cc1 [P6] (X3-[Ala(1H-tetrazol-5-yl)]GT[αMePhe(2-F)]TSD[Bip(2'-Et,4'-O(CH2)4NH2)][Nva(5-(3,5-Me2Ph))]-NH2)",> 57.8,> 200,1.0,1.0,> 200,>57.8,0.602,0.9,60.7,60.7,0.602,0.9,92.3,0.853,
"CCc1cc(OCCCCN)ccc1-c1ccc(C[C@H](NC(=O)[C@H](CC(=O)O)NC(=O)[C@H](CO)NC(=O)[C@@H](NC(=O)[C@](C)(Cc2ccccc2F)NC(=O)[C@@H](NC(=O)CNC(=O)[C@H](Cc2nn[nH]n2)NC(=O)CCCCCc2cnc[nH]2)[C@@H](C)O)[C@@H](C)O)C(=O)N[C@@H](CCCc2cc(C)cc(C)c2)C(N)=O)cc1 [P11] (X1-[Ala(1H-tetrazol-5-yl)]GT[αMePhe(2-F)]TSD[Bip(2'-Et,4'-O(CH2)4NH2)][Nva(5-(3,5-Me2Ph))]-NH2)",> 57.8,> 200,1.1,1.1,> 200,>57.8,0.685,0.8,54.8,54.8,0.685,0.8,83.4,1.03,
"CCc1cc(OCCCCN)ccc1-c1ccc(C[C@H](NC(=O)[C@H](CC(=O)O)NC(=O)[C@H](CO)NC(=O)[C@@H](NC(=O)[C@](C)(Cc2ccccc2F)NC(=O)[C@@H](NC(=O)CNC(=O)[C@H](Cc2nn[nH]n2)NC(=O)[C@H](C)NC(=O)[C@H](Cc2c[nH]cn2)NC(=O)[C@@H](N)CCC(N)=O)[C@@H](C)O)[C@@H](C)O)C(=O)N[C@@H](CCCc2cc(C)cc(C)c2)C(N)=O)cc1 [P13] (H-QHA[Ala(1H-tetrazol-5-yl)]GT[αMePhe(2-F)]TSD[Bip(2'-Et,4'-O(CH2)4NH2)][Nva(5-(3,5-Me2Ph))]-NH2)",16.9,> 200,1.2,1.2,> 200,16.9,0.357,1.5,69.5,69.5,0.357,1.5,105.6,0.914,
CCc1cc(OCCCCN)ccc1-c1ccc(C[C@H](NC(=O)[C@H](CC(=O)O)NC(=O)[C@H](CO)NC(=O)[C@@H](NC(=O)[C@](C)(Cc2ccccc2F)NC(=O)[C@@H](NC(=O)CNC(=O)[C@H](CCC(N)=O)NC(=O)C(C)(C)C(=O)NCCc2cnc[nH]2)[C@@H](C)O)[C@@H](C)O)C(=O)N[C@@H](CCCc2cc(C)cc(C)c2)C(N)=O)cc1 [P21],,> 200,1.3,1.3,> 200,>57.8,0.738,0.7,58.8,58.8,0.738,0.7,89.5,0.427,"half-life at 2 µM ([1]; plasma, pH 7.4, tested time C (3 days)): > 173 h"
C[C@]12CC[C@H]3[C@@H](CCC4=CC(=O)CC[C@@]43C)[C@@H]1CC[C@@H]2O [Testosterone],,,,,,,,,,,,,,,CLint scaled ([9]; read-out: CLint(liver)): 77.2 mL/min/kg; microsomal CLint ([9]; read-out: CLint(mic)): 85.7 µL/min/mg
CC(=O)CC(c1ccccc1)c1c(O)c2ccccc2oc1=O (stereo not shown) [Warfarin],,,,,,,,,,,,,,,"recovery at 4 h, 2 µM [10]: 98.3%"

# Reference: patent US20230330254A1 (Regeneron Pharmaceuticals, Inc., priority 2022, published 2023)
